Reference: PMC4928072, “Dietary apigenin potentiates the inhibitory effect of interferon-α on cancer cell viability through inhibition of 26S proteasome-mediated interferon receptor degradation” (Food & Nutrition Research, 2016)

How the values were obtained:
Format in all cases: biochemical
[1] = target: T1, 26S proteasome, β1 subunit (caspase-like activity) (Homo sapiens, UniProt P28072); experiment: peptidase assay of purified human 26S proteasome with Z-Nle-Pro-Nle-Asp-aminoluciferin
T1 construct: gene PSMB6; purified human 26S proteasome; with other subunits of the 26S proteasome
T1 sequence (P28072 35-239): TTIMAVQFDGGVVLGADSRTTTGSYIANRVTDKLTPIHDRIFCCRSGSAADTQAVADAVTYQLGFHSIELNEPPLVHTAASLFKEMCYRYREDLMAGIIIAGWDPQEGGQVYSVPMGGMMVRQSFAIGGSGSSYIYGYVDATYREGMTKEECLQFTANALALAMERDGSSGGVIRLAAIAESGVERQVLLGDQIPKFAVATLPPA

[2] = target: T2, 26S proteasome, β2 subunit (trypsin-like activity) (Homo sapiens, UniProt Q99436); experiment: fluorogenic peptidase assay of purified human 26S proteasome with Ac-Arg-Leu-Arg-AMC
T2 construct: gene PSMB7; purified human 26S proteasome; with other subunits of the 26S proteasome
T2 sequence (Q99436 44-277): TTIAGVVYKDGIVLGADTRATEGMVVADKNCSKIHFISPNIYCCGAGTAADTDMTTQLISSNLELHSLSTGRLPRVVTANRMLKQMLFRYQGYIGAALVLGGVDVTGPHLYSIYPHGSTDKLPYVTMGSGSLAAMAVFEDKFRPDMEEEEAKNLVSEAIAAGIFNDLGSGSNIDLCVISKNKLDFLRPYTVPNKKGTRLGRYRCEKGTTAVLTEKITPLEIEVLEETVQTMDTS

[3] = target: T3, 26S proteasome, β5 subunit (chymotrypsin-like activity) (Homo sapiens, UniProt P28074); experiment: fluorogenic peptidase assay of purified human 26S proteasome with Suc-Leu-Leu-Val-Tyr-AMC
T3 construct: gene PSMB5; purified human 26S proteasome; with other subunits of the 26S proteasome
T3 sequence (P28074 60-263): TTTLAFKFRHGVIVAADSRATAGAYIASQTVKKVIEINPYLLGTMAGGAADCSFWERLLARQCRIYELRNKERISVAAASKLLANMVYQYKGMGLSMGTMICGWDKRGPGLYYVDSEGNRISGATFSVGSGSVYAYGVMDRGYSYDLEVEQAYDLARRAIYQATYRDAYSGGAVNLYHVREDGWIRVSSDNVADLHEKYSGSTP

O=c1cc(-c2ccc(O)cc2)oc2cc(O)cc(O)c12 [apigenin]
IC50 [1]: 1.5 µM | IC50 [2]: 20 µM | IC50 [3]: 11.5 µM
